From patent US20260014147A1, “STAT6 DEGRADERS” (Gilead Sciences, Inc., priority 2024, published 2026)

Key:
[1] = test system: Eotaxin-3 (CCL26) release in human whole blood stimulated with IL-4; test: Human Whole Blood Eotaxin-3 Assay (IL-4 stimulated, inhibition of eotaxin-3 release); type: cell-based; details: Homo sapiens, EC50 provided for test compounds with >80% Emax, geometric mean across assay runs and batches
Description: This was a human whole blood assay using recombinant human Interleukin 4 to stimulate the blood and measuring the ability of the test compounds to inhibit eotaxin-3 release. The biological activities of the test compounds have been tested in human whole blood stimulated with IL-4 measuring Eotaxin-3 release. The test compounds were added to 384 well clear flat-bottom plate in a 4-fold serial dilution in triplicates using a liquid handler. Human whole blood stabilized in lithium-heparin tubes was added in a volume of 65 uL per well, resulting in a final DMSO concentration of 0.5%. The plate is incubated for 2 h at 37° C. under 5% CO2/95% air. Subsequently, 5 μL of recombinant human IL-4 (R&D Systems, cat #204-ILB) was added to the wells to a final concentration of 400 pM. The plate was incubated for 48 h at 37° C. under 5% CO2/95% air. The plate was spun down for 10 minutes at 500×g and 20 uL supernatant was harvested and transferred to a 384 well v-bottom plate using a liquid handler and stored at −20° C. until further analysis. 10 uL supernatant was used to measure the level of Eotaxin-3 (CCL26) using Human Eotaxin-3 MSD kit from Mesocsale (Cat #K251UEK-4). The assay was performed according to the manufacture instructions.
The data from the human whole blood eotaxin-3 assay is shown below for Examples 2q11, 2110, and 2c49 (where the effect in % is plotted against the test concentration in M on a log-scale).

[2] = target: T1, STAT6 (endogenous, HiBiT-tagged) in HeLa LgBiT clone 4.14 cells (Homo sapiens, UniProt P42226); test: STAT6 Degrader Assay (HiBiT based, HeLa LgBiT clone 4.14 cells, luminescence, DC50); type: cell-based; details: Emax provided for test compounds with <80% Emax (and 2c15), geometric mean, read-out: STAT6 degradation Emax
T1 construct: These cells express endogenous STAT6; host or cells: HeLa LgBiT clone 4.14
T1 sequence (P42226 1-847): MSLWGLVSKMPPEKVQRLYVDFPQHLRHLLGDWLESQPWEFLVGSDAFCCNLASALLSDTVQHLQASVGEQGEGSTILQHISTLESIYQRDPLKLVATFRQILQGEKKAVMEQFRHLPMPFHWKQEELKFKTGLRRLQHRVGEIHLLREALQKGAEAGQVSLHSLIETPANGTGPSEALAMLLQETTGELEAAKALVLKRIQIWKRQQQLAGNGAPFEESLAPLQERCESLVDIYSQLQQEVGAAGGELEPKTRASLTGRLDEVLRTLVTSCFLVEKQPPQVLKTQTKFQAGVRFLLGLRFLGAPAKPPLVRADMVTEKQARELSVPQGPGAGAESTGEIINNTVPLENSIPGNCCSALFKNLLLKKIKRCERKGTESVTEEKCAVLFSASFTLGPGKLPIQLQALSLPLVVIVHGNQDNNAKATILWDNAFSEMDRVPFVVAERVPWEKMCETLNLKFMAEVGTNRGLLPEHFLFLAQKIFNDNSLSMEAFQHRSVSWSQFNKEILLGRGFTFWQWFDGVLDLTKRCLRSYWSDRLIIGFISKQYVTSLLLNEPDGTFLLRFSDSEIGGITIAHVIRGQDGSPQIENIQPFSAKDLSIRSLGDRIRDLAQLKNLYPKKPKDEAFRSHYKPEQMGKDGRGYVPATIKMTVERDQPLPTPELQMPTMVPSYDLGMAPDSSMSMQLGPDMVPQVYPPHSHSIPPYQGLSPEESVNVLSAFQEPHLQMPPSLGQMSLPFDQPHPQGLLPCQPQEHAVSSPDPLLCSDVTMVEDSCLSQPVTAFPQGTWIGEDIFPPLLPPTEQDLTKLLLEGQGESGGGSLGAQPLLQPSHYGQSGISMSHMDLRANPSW
Procedure, shortened: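 Remaining STAT6 is read as NanoBiT luminescence after 0.5 h with Nano-Glo, in HeLa LgBiT clone 4.14 cells expressing endogenous HiBiT-tagged STAT6, following 4-24 h compound incubation at 37 °C. Full degradation is set by 50 µM terfenadine, which kills the cells; degradation plotted against log compound concentration.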

EC50 [1] | Emax [2] | SMILES
385 nM |  | C[C@@H](c1cc2c(-c3ccc(N)nc3)ccnc2n1C)N1CCC(c2ccc(C(=O)N3CCC(CN4CCN(c5ccc(NC6CCC(=O)NC6=O)cc5F)C[C@H]4C(F)(F)F)CC3)cc2)CC1 (single isomer, unassigned) [Example 2f10]
406 nM |  | C[C@@H](c1cc2c(-c3ccc(N)nc3)ccnc2n1C)N1CCC(c2ccc(C(=O)N3CCC(CN4CCN(c5ccc(NC6CCC(=O)NC6=O)cc5F)C[C@@H]4C(F)(F)F)CC3)cc2)CC1 (single isomer, unassigned) [Example 2f11]
112 nM |  | COc1cc(N2CCN(CC3CCN(C(=O)c4ccc(C5CCN([C@@H](C)c6cc7c(-c8ccc(N)nc8)ccnc7n6C)CC5)cc4)CC3)CC2)ccc1NC1CCC(=O)NC1=O (stereo partly drawn) [Example 2c40, 3-((4-(4-((1-(4-(1-((S)-1-(4-(6-aminopyridin-3-yl)-1-methyl-1H-pyrrolo[2,3-b]pyridin-2-yl)ethyl)piperidin-4-yl)benzoyl)piperidin-4-yl)methyl)piperazin-1-yl)-2-methoxyphenyl)amino)piperidine-2,6-dione]
197 nM |  | CNc1ccc(-c2ccnc3c2cc([C@H](C)N2CC=C(c4c(C)cc(C(=O)N5CCC(CN6CCN(c7ccc(NC8CCC(=O)NC8=O)cc7F)C[C@@H]6C)CC5)cc4F)CC2)n3C)cn1 (stereo partly drawn) [Example 2c47, 3-((3-fluoro-4-((S)-4-((1-(3-fluoro-5-methyl-4-(1-((S)-1-(1-methyl-4-(6-(methylamino)pyridin-3-yl)-1H-pyrrolo[2,3-b]pyridin-2-yl)ethyl)-1,2,3,6-tetrahydropyridin-4-yl)benzoyl)piperidin-4-yl)methyl)-3-methylpiperazin-1-yl)phenyl)amino)piperidine-2,6-dione]
3 nM |  | CNc1ccc(-c2ccnc3c2cc([C@H](C)N2CC=C(c4c(C)cc(C(=O)N5CCn6nc(CN7CCC(c8ccc(NC9CCC(=O)NC9=O)c(OC)c8)CC7)cc6C5)cc4F)CC2)n3C)cn1 (stereo partly drawn) [Example 2c49, 3-((4-(1-((5-(3-fluoro-5-methyl-4-(1-((S)-1-(1-methyl-4-(6-(methylamino)pyridin-3-yl)-1H-pyrrolo[2,3-b]pyridin-2-yl)ethyl)-1,2,3,6-tetrahydropyridin-4-yl)benzoyl)-4,5,6,7-tetrahydropyrazolo[1,5-a]pyrazin-2-yl)methyl)piperidin-4-yl)-2-methoxyphenyl)amino)piperidine-2,6-dione]
265 nM |  | C[C@H]1CN(c2ccc(NC3CCC(=O)NC3=O)cc2F)CCN1CC1CCN(C(=O)c2ccc(C3CCN([C@@H](C)c4cc5c(-c6ccc(N)nc6)ccnc5n4C)CC3)cc2)CC1 (stereo partly drawn) [Example 2c54, 3-((4-((S)-4-((1-(4-(1-((S)-1-(4-(6-aminopyridin-3-yl)-1-methyl-1H-pyrrolo[2,3-b]pyridin-2-yl)ethyl)piperidin-4-yl)benzoyl)piperidin-4-yl)methyl)-3-methylpiperazin-1-yl)-3-fluorophenyl)amino)piperidine-2,6-dione]
247 nM |  | C[C@H]1CN(c2ncc(NC3CCC(=O)NC3=O)cc2F)CCN1CC1CCN(C(=O)c2ccc(C3CCN([C@@H](C)c4cc5c(-c6ccc(N)nc6)ccnc5n4C)CC3)cc2)CC1 (stereo partly drawn) [Example 2c55, 3-((6-((S)-4-((1-(4-(1-((S)-1-(4-(6-aminopyridin-3-yl)-1-methyl-1H-pyrrolo[2,3-b]pyridin-2-yl)ethyl)piperidin-4-yl)benzoyl)piperidin-4-yl)methyl)-3-methylpiperazin-1-yl)-5-fluoropyridin-3-yl)amino)piperidine-2,6-dione]
25.1 nM |  | COCc1nc2cc(-c3ccnc4c3cc(CN3CCC(c5ccc(C(=O)N6CCn7nc(CN8CCC(c9ncc(NC%10CCC(=O)NC%10=O)cc9F)CC8)cc7C6)cc5)CC3)n4C)ccc2[nH]1 (centres unmarked) [Example 2q8, 3-((5-fluoro-6-(1-((5-(4-(1-((4-(2-(methoxymethyl)-1H-benzo[d]imidazol-5-yl)-1-methyl-1H-pyrrolo[2,3-b]pyridin-2-yl)methyl)piperidin-4-yl)benzoyl)-4,5,6,7-tetrahydropyrazolo[1,5-a]pyrazin-2-yl)methyl)piperidin-4-yl)pyridin-3-yl)amino)piperidine-2,6-dione]
37.8 nM |  | C[C@@H](c1cc2c(-c3ccc(N)nc3)ccnc2n1C)N1CCC(c2ccc(C(=O)N3CCn4nc(CN5CCN(c6ccc(NC7CCC(=O)NC7=O)cc6F)CC5)cc4C3)cc2)CC1 (stereo partly drawn) [Example 2q15, 3-((4-(4-((5-(4-(1-((S)-1-(4-(6-aminopyridin-3-yl)-1-methyl-1H-pyrrolo[2,3-b]pyridin-2-yl)-ethyl)piperidin-4-yl)benzoyl)-4,5,6,7-tetrahydropyrazolo[1,5-a]pyrazin-2-yl)methyl)piperazin-1-yl)-3-fluoro-phenyl)amino)piperidine-2,6-dione]
 | 60 to 70% | Cn1c(CN2CCC(c3ccc(C(=O)N4CCC(CN5CCN(Cc6ccc(NC7CCC(=O)NC7=O)cc6)CC5)CC4)cc3)CC2)cc2c(-c3ccc4[nH]ncc4c3)ccnc21 (centres unmarked) [Example 2s1, 3-((4-((4-((1-(4-(1-((4-(1H-indazol-5-yl)-1-methyl-1H-pyrrolo[2,3-b]pyridin-2-yl)methyl)-piperidin-4-yl)benzoyl)piperidin-4-yl)methyl)piperazin-1-yl)methyl)phenyl)amino)piperidine-2,6-dione]
 | 40 to 50% | Cn1c(CN2CCC(c3ccc(C(=O)N4CCC(CN5CCN(Cc6ccc(NC7CCC(=O)NC7=O)cc6F)CC5)CC4)cc3)CC2)cc2c(-c3ccc(N)nc3)ccnc21 (centres unmarked) [Example 2s2, 3-((4-((4-((1-(4-(1-((4-(6-aminopyridin-3-yl)-1-methyl-1H-pyrrolo[2,3-b]pyridin-2-yl)methyl)piperidin-4-yl)benzoyl)piperidin-4-yl)methyl)piperazin-1-yl)methyl)-3-fluorophenyl)amino)piperidine-2,6-dione]
 | < 20% | Cn1c(CN2CCC(c3ccc(C(=O)N4CCC(CN5CCN(C(=O)c6ccccc6NC6CCC(=O)NC6=O)CC5)CC4)cc3)CC2)cc2c(-c3ccc4[nH]ncc4c3)ccnc21 (centres unmarked) [Example 2t2, 3-((2-(4-((1-(4-(1-((4-(1H-indazol-5-yl)-1-methyl-1H-pyrrolo[2,3-b]pyridin-2-yl)methyl)-piperidin-4-yl)benzoyl)piperidin-4-yl)methyl)piperazine-1-carbonyl)phenyl)amino)piperidine-2,6-dione]
 | 40 to 50% | Cn1c(CN2CCC(c3ccc(C(=O)N4CCC(CN5CCN(c6ccc(NC7CCC(=O)NC7=O)nc6)CC5)CC4)cc3)CC2)cc2c(-c3ccc4[nH]ncc4c3)ccnc21 (centres unmarked) [Example 2t3, 3-((5-(4-((1-(4-(1-((4-(1H-indazol-5-yl)-1-methyl-1H-pyrrolo[2,3-b]pyridin-2-yl)methyl)piperidin-4-yl)benzoyl)piperidin-4-yl)methyl)piperazin-1-yl)pyridin-2-yl)amino)piperidine-2,6-dione]
 | 30 to 40% | Cn1c(CN2CCC(c3ccc(C(=O)N4CCC(OCC#Cc5cccc(NC6CCC(=O)NC6=O)c5)CC4)cc3)CC2)cc2c(-c3ccc4[nH]ncc4c3)ccnc21 (centres unmarked) [Example 2t5, 3-((3-(3-((1-(4-(1-((4-(1H-indazol-5-yl)-1-methyl-1H-pyrrolo[2,3-b]pyridin-2-yl)methyl)-piperidin-4-yl)benzoyl)piperidin-4-yl)oxy)prop-1-yn-1-yl)phenyl)amino)-piperidine-2,6-dione]
